Data on 89 molecules can be found in a melting point compilation (Tetko et al.; mined from patent text by program, amines drawn as free bases though some values may be those of a salt).

In the case of `Cc1cc(-c2cccc(S(F)(F)(F)(F)F)c2)c(S(C)(=O)=O)cc1C(=O)NC(=N)N`, the melting point (as a rule, the temperature of the solid-liquid transition) lay within 169 to 175 °C.
In the case of `CC(O)(C(O)CBr)C(O)CBr` (centres undefined) it was 78 to 80 °C; in that of `Nc1sc2c(c1C(=O)c1ccc3c(c1)Cc1ccccc1-3)CCCC2`, 146 to 149 °C.
As for `Cc1ccnc2c1N=C(n1ccnc1)c1cccnc1N2C1CC1`, the melting point fell in the range of 198 to 200 °C.
As for `CCCCc1nn(-c2cc([N+](=O)[O-])ccc2Cl)c(=O)n1Cc1ccc(-c2ccccc2S(=O)(=O)NC(C)(C)C)cc1`, the melting point is over 75 °C.
With `COc1ccc2c(c1)C(O)C(Cc1ccc(OC)c(OC3CC4CCC3C4)c1)CO2` (centres undefined), the melting point lay in the range of 115 to 117 °C.
Turning to `CCO[C@@H]1C[C@@H](C(=O)NC)N(S(=O)(=O)c2ccc(Cl)c(CBr)c2Cl)C1`, the melting point stood at 122 °C.
For `C[C@@H](CS(=O)C(F)(F)C(F)F)[C@](O)(Cn1cncn1)c1ccc(Cl)cc1Cl` (some centres undefined) the value was 153 to 155 °C; for `CCOC(=O)NC(=O)c1c(Cl)ccc2c(C(F)(F)F)c(OC)ccc12`, 169 to 171 °C.
With `NC(c1ccc2c(c1)OCO2)P(O)O` (centres undefined), the melting point lay in the range of 235 to 236 °C.
On to `COC(=O)c1ccc(CCC(C)(C)NCC(O)c2cc3ccccc3o2)cc1` (centres undefined), for which the melting point was in the range of 141 to 145 °C.
For the molecule `CS(=O)(=O)c1ccc(-c2cnn(-c3ccc(F)c(Cl)c3)c(=O)c2Cc2cccc(F)c2)cc1`, the melting point fell in the range of 101 to 103 °C.
`Cc1noc(NC(=O)N2CCN(c3cc(-c4cccc(F)c4)ncn3)CC2)c1C` showed a melting point of 185 to 186 °C.
Molecule `CN(Cc1ccc(Cl)nc1)C(N)=N[N+](=O)[O-]` had a melting point of 158 °C.
In the case of `CCc1cc(C(=O)c2ccccc2Cl)c(-n2cnnc2CNC(=O)c2ccccc2)s1` it was 140 to 142 °C.
For the molecule `CCc1c(F)c(=O)oc2cc(O)cc(O)c12`, the melting point lay within 227 to 229 °C.
Regarding `O=[N+]([O-])c1c(F)c(F)c(O)c(Cl)c1F`, the melting point lay in the range of 107 to 109 °C.
In the case of `NC(=S)Cn1c(=O)sc2ccccc21` it was 205 to 207 °C.
For `COc1ccc(CN2C(=O)C(CO)(c3ccccc3Cl)c3cc(Cl)ccc32)c(OC)c1` (centres undefined) the value was 165 °C.
Turning to `CC(C)(O)C(=O)c1ccc(F)cc1`, the melting point was 131 °C.
With `CS(=O)(=O)c1ccc(-c2cc(F)c(F)cc2Br)cc1`, the melting point was 158 to 160 °C.
Molecule `O=Cc1cc(O)c2c(c1O)CCCC2` displayed a melting point of 145 °C.
`O=c1oc2ccccc2cc1CCN1CCC(Nc2nc3ccccc3n2Cc2cccs2)CC1` yielded a melting point of 165 °C.
`CCCn1nc(-c2ccc(O)cc2)c2cccc(-c3ccccc3)c21` gave a melting point of 171 to 172 °C.
The molecule `O=C(O)CCCn1nnnc1S` displayed a melting point of 90 to 95 °C.
For `COC(=O)C1CCC2(C)C(=CC(O)C3C2CCC2(C)C(O)CCC32)C1` (centres undefined) the value was 150 to 152 °C.
With `Clc1ccc(-n2nc3c(c2Br)CCCC3)cc1`, the melting point was 101 to 102 °C.
As for `CCc1ccnc(C(=O)c2[nH]c3ccc(CC)cc3c2CC(=O)O)c1`, the melting point worked out at 206 °C.
For `COC(=O)c1ccc(OC)nc1S(=O)(=O)NC(=O)Nc1nc(OC)cc(OC)n1` the value was 194 to 196 °C.
For the molecule `O=C(O)c1cn(Cc2cnsn2)c2c(F)c(F)c(F)cc2c1=O`, the melting point lay in the range of 220 to 222 °C.
In the case of `Cn1c(=O)c(-c2ccccc2Cl)cc2cnc(NC3CCS(=O)(=O)CC3)nc21`, the melting point is 206 to 207 °C.
In the case of `NS(=O)(=O)c1ccc(NC(=O)CNc2ccccc2)c(Cl)c1` it was 185 to 186 °C; in that of `O=c1[nH]c2ccccc2n1C1=CCN(C2C=CC(c3ccc(F)cc3)(c3ccc(F)cc3)CC2)CC1` (centres undefined), 200 to 202 °C; in that of `CCCc1ccc(CCCCCCCC(=O)O)cc1`, 42 to 43 °C.
Molecule `CCCCCC(=O)c1cccc(NC(=O)c2ccc(Cl)cc2O)c1` registered a melting point of 134 to 136 °C.
On to `COC(=O)C=C(Br)SC#N`, for which the melting point lay in the range of 139 to 142 °C.
Molecule `CCCC(=O)N1CCc2nnc(NN=C(C)C)cc2C1` displayed a melting point of 152 to 154 °C.
With `COc1ccc(C(=NOC(C)=O)c2ccccc2F)c(O)c1Cl`, the melting point was 125 to 128 °C.
Consider `CN(C)c1cccc2c(S(=O)(=O)Nc3ccc(Br)nc3)cccc12`, for which the melting point fell in the range of 164 to 165 °C.
The molecule `COC(=O)c1nc(C)c(-c2nccs2)s1` showed a melting point of 129 to 130 °C.
`CC(=O)OC1(C)CC(=O)OC(CCc2ccc(OCc3ccccc3)cc2)C1` (centres undefined) yielded a melting point of 98 to 101 °C.
As to `CCCCOCCOc1ccc(-c2ccc3c(c2)C=C(C(=O)Nc2ccc(N(C)Cc4nncn4CCC)cc2)CCN3CC(C)C)cc1`, the melting point was in the range of 134 to 136 °C.
For `CSc1ccccc1-c1cc2c(ccn2C)c2c1C(=O)NC2=O` the value was 272 to 274 °C; for `O=C(O)CCc1cn(Cc2ccccc2)c2ccccc12`, 110 to 112 °C; for `Nc1ccc(NC2CCCCCCC2)c([N+](=O)[O-])c1`, 161 °C.
In the case of `CN1CCN(Cc2cc3c(cc2F)-c2[nH]nc(-c4ccsc4)c2C3)CC1` it was 115 to 118 °C; in that of `Cc1nc2ccccn2c(=O)c1CCN1CCN(C(=NNc2ccccc2)c2ccccc2F)CC1`, 180 °C; in that of `CC(=O)NC[C@H]1CN(c2ccc(C(=O)c3cnc4ccc(C#N)cn34)cc2)C(=O)O1`, 224 to 226 °C.
In the case of `CCOCCOc1ccc(C(=O)Nc2ccc3cc(CN4CCCC4)cnc3c2C)c(F)c1` it was 132 °C; in that of `Nc1ccc(N(CCO)C(=O)OCc2ccccc2)c(O)c1`, 142 °C.
With `O=S(=O)(Nc1ccc2c(OCc3ccc(-c4ccc(Cl)c(Cl)c4)cc3F)cccc2c1)C(F)(F)F`, the melting point was in the range of 172 to 174 °C.
Molecule `CC(C)(C)OC(=O)NC1CCN(CC23CC(c4ccccc42)c2ccc(Cl)cc23)CC1` (centres undefined) came in with a melting point of 76.5 to 80 °C.
For the molecule `CCOC(=O)C(=Cc1ccccc1)S(N)(=O)=O`, the melting point was in the range of 88 to 89 °C.
`CCOP(=O)(COc1ccc(CO)cc1N)OCC`: the melting point fell in the range of 181 to 184 °C.
Molecule `CCOC(=O)c1c(O)c2cc(Cl)cnc2n(Cc2ccc(OC)cc2)c1=O` gave a melting point of 185 to 187 °C.
For `CC(C)(NC1=NS(=O)(=O)c2sc(Cl)cc2N1)c1ccccc1` the value was 360 °C.
As to `CCOP(=O)(OCC)c1ccc2cc(I)cc(-c3cccc4ccccc34)c2n1`, the melting point is 127 to 128 °C.
For `C=CCSc1nc2cc(C)c(C)cc2[nH]1` the value was 119 to 120 °C; for `Cc1cc(C)c2c(c1O)C(NCc1cc(C(C)(C)C)c(O)c(C(C)(C)C)c1)CC2` (centres undefined), 154 to 155 °C.
In turn, `Cc1oc(-c2ccccc2)nc1CSc1ccc(S(=O)(=O)Nc2ccccc2C(=O)O)cc1` yielded a melting point of 182 to 184 °C.
`CCOC(=O)c1ccc(COc2cccc(O)c2C=O)cc1` showed a melting point of 105 to 107 °C.
`NC(=O)NN=C1CCCCC1n1nc(-c2c(-c3ccccc3)nn3ccccc23)ccc1=O` (centres undefined): the melting point is 227 to 229 °C.
In the case of `CCOC(=O)C(NC(C)=O)(C(=O)OCC)c1ccc(Cl)cn1` it was 89 to 90 °C; in that of `COC(=O)C1CCC2C3CCC4CC(O)C(Br)CC4(C)C3CCC12C` (centres undefined), 195 to 198 °C; in that of `CC(C)Oc1cc(CCCOc2ccc3ccccc3c2CC(=O)O)n(Cc2ccc(Cl)cc2Cl)n1`, 120 to 122 °C.
As for `O=C(Nc1cccnc1NCc1ccc(Cl)cc1)c1ccccc1[N+](=O)[O-]`, the melting point was in the range of 145 to 147 °C.
Regarding `CN1CCc2ccc(C(=O)CCC(=O)N3CCC(c4ccc(Cl)cc4)CC3)cc2CC1`, the melting point fell in the range of 143 to 145 °C.
The molecule `CCCCc1nc2ccccn2c1Cc1ccc(-c2ccccc2C(=O)O)cc1` registered a melting point of 196 °C.
`C#CCN(C(=O)C(F)(F)F)[C@H]1CCc2ccc([N+](=O)[O-])cc21` gave a melting point of 83 to 85 °C.
In the case of `FC(F)(F)c1cccc(Nc2nc3ccccc3o2)c1` it was 193 to 194 °C; in that of `COC(=O)c1cc(OCCc2nc(-c3ccccc3)oc2C)no1`, 90 to 91 °C.
In the case of `CN1CCN(Cc2ccccc2)C(c2ccccc2)C1` (centres undefined), the melting point is 58 to 60 °C.
Take `COc1c(C)ccc(C(C)C)c1CO`: the melting point lay within 100 to 101 °C.
Turning to `Fc1cc2c(Nc3ccc(Cl)c(Cl)c3)ncnc2cn1`, the melting point lay within 262 to 264 °C.
`COc1cc(N2CCC(N3CCCN(CCO)CC3)CC2)ccc1Nc1ncc2ccc(-c3ccccc3N(C)S(C)(=O)=O)n2n1` had a melting point of 91 to 104 °C.
In the case of `CC(C)(C)c1ccc(/C=C/C(=O)Nc2ccc3c(c2)NCCC3)cc1` it was 225 to 227 °C; in that of `CCC(C)n1nc(C)n(-c2ccc(N3CCCN(C(=O)OC(C)(C)C)CC3)cc2)c1=O` (centres undefined), 119 to 120 °C; in that of `Cn1cc(C(N)=O)c([N+](=O)[O-])n1`, 190 to 192 °C.
`O=C(O)c1cncc2cccc([N+](=O)[O-])c12` returned a melting point of 285 °C.
Take `CCNc1nc2ccc(CCc3nc4cc(C)ccn4c3Br)cc2o1`: the melting point lay within 149 to 153 °C.
Molecule `CCOC(=O)c1ncc2[nH]c3ccc(I)cc3c2n1` yielded a melting point of 264 to 266 °C.
Molecule `Fc1ccc(-c2cc(CCOCc3ccccc3)cc(OCCCCCl)c2)cc1` gave a melting point of 48 to 49 °C.
Regarding `Nc1ccc2c(=O)n3c(nc2c1)C(=Cc1ccccc1)CCC3`, the melting point is 190 to 193 °C.
`CC(C)(C)c1nc(S(C)(=O)=O)n(-c2c(Cl)cc(Cl)cc2Cl)n1`: the melting point is 179 to 180 °C.
For `COc1cc(C#N)cc(Br)c1O` the value was 144 to 145 °C; for `O=C(O)C(Cl)=Cc1cc(-n2c(=O)cc(C(F)(F)F)[nH]c2=O)ccc1Cl`, over 250 °C; for `Cc1ccc(NC(=O)N(C)Cc2cccc3c2C(=O)N(C2CCC(=O)NC2=O)C3=O)cc1C` (centres undefined), 202 to 204 °C.
Regarding `COc1ccc(/C=C/c2cc(/C=C/c3ccc4[nH]ccc4c3)n[nH]2)cc1OCc1ccccn1`, the melting point was in the range of 109 to 118 °C.
Regarding `CS(=O)(=O)Nn1c(=O)[nH]c2cc(C(F)(F)F)c(-n3cnc(C(F)(F)F)c3)cc2c1=O`, the melting point lay within 144 to 147 °C.
